US10858331B1, “Ester nitrates derivatives of aromatic aldehydes with multiple pharmalogic properties to treat sickle cell disease” (VIRGINIA COMMONWEALTH UNIVERSITY, priority 2013, dated 2020)

Assays:
[1] = biological target: T1, cell-free Hb (Homo sapiens, UniProt P68871+P69905); assay: OEC study with normal cell-free Hb; format: biochemical; details: cell-free Hb 12 mg/mL, 2 mM compound; for N (Hill coefficient) / P50: n = 1; for ΔP50: versus control P50 12.5
T1 construct: Hemoglobin was prepared from centrifuging human blood; from tissue; host or cells: human blood (red cells lysed, Hb purified on DEAE sephacel)
Protocol: (§1) Studies were performed on compounds TD-7, TD-7-1, TD-8, TD-8-1, TD-9 and TD-9-1 using 100 mM stock solution in DMSO and normal whole blood (AA). TD-7, TD-8 and TD-9 are compounds with a hydroxymethyl group on the pyridine ring, while TD-7-1, TD-8-1 and TD-9-1 are the respective nitrate ester derivatives. The whole blood samples had hematocrit values ranging from 29-36%, and cell-free purified Hb of 10-12 g/dL in the absence or presence of effectors solubilized in DMSO at 2 mM or in some cases with varying compound concentration. The blood samples were incubated in an IL 237 tonometer (Instrumentation Laboratories, Inc., Lexington, Mass.) for about 5-7 min at 37° C. against a gas mixture containing O2 concentrations of 0.804%, 2.935% and 5.528% and allowed to equilibrate at O2 tensions of 6, 20 and 40 mmHg. After equilibration, the sample was removed via syringe and aspirated into a ABL 700 series table top automated blood gas analyzer (Radiometer America, Inc., Westlake, Ohio) to determine total hemoglobin (tHb), hematocrit (Hct), pH, pCO2, partial pressure of oxygen (pO2), and the Hb oxygen saturation values (sO2). Similar procedures were followed for concentration and time dependence studies. The measured values of pO2 and sO2 at each oxygen saturation level were then subjected to a non-linear regression analysis using the program Scientist (Micromath, Salt Lake City, Utah) with the following equation: […]
Hemoglobin was prepared from centrifuging human blood at 2500 rpms for 20 min at 4° C. The supernatant solution, debris and plasma were discarded from the centrifuge bottles, leaving behind RBCs. The RBCs were washed thrice with an excess volume of 0.9% NaCl, and once with 1.0% NaCl, each time centrifuging and discarding the supernatant solution. The RBCs were pooled together into a chilled flask and hemolyzed to free Hb by adding 1-2 volume excess of 50 mM Tris buffer, pH 8.6 (containing EDTA). The mixture was allowed to stand in ice for 30 min with occasional stirring. The Hb solution was centrifuged at 10,000 rpm for 2 h at 4° C. The supernatant Hb solution was pooled into a chilled flask and NaCl (40-60 mg/mL Hb solution) was slowly added with stirring. Hemoglobin solution was centrifuged at 10,000 rpm for 2 h at 4° C. to remove any cell stroma remnants. The clear supernatant Hb solution was pooled into a chilled flask and the “syrupy” pellet was discarded. Hemoglobin solution was dialyzed against 50 mM Tris buffer, pH 8.6 (containing EDTA) at 4° C. to remove NaCl and/or other low molecular weight impurities. Strips of standard cellulose dialysis tubing that had been washed 3-4 times and boiled for 10 min in deionized water were used for dialysis. The dialyzed Hb was further purified by ion-exchange chromatography using DEAE sephacel to exclude 2,3-DPG. The resin was equilibrated with 50 mM Tris buffer, pH 8.6, and the Hb solution was run through the column with 50 mM Tris buffer, pH 8.6 (containing EDTA). The pooled fractions were concentrated with an Amicon stirred cell (Amicon, Model 402), to a final HbA concentration of about 80-120 mg/mL. Concentrated HbA was stored at −80° C.
As a result of the low left-shifting activities of TD-8 and TD-9, as well as the nitrate ester derivatives, we further evaluated the activity of the compounds TD-1, TD-7, TD-7-1, TD-8, and TD-9 using cell-free Hb (devoid of any proteins, enzymes, plasma and cell membranes) to determine whether plasma protein or RBC membrane could have any effect on compound biological activity. Previous studies have shown limited effect of plasma protein and RBC membrane on SHMF activity. The same tonometry procedure used on whole blood was used with the cell-free hemoglobin using 2 mM compound and 12 mg/mL of Hb.

[2] = biological target: T2, Hb (Homo sapiens, UniProt P68871+P69905); assay: Oxygen equilibrium curve (OEC) study with normal whole blood (AA); format: cell-based; details: 2 mM compound, 1.5 h incubation; for P50: 37° C.; for ΔP50: versus DMSO control
T2 construct: normal whole blood (AA); from tissue; host or cells: normal whole blood (AA), red blood cells
Protocol: as §1
This equation was used to calculate P50 and Hill coefficient (N) values. Corresponding control experiments without the test compound (P50control) but containing DMSO were also performed.

[3] = test system: SS cells; assay: In vitro RBC anti-sickling (morphological) study with SS cells; format: cell-based, human
Protocol: In vitro RBC morphological (anti-sickling) analysis was conducted at the Children's Hospital of Philadelphia (by Drs. Toshio Asakura and Osheiza Abdulmalik). The anti-sickling effects of 5HMF, TD-7 HCl, TD-7, TD-1, and TD-7-1 were studied by incubating suspensions of SS cells in the absence or presence of three different concentrations of the effectors in the presence of air for 1 h at 37° C. followed by incubation under 4% oxygen at 37° C. for 5 h. All samples were pre-incubated for 1 h with various compounds and then incubated under 4% O2 for 5 h. […] Table 5 represents the concentrations of the effectors along with the % inhibition of sickling cells. The hemolysates that had been prepared from SS cells after incubation with test compounds were also subjected to cation-exchange HPLC as previously reported (Abdulmalik et al., 2005).

[4] = NO release study (Griess assay) in presence of L-cysteine; details: for NO2− release after 1 hour / NO2− release after 16 hours: 2 mM compound solution mixed with 36 mM L-cysteine, phosphate buffer pH 7.4, 37° C., anaerobic; for NO release in the form of NO2− (rank among the compounds): comparison of the four nitrate esters
Protocol: Griess assay was performed on the left-shifting nitrate ester compounds (TD-1, […], TD-8-1 and, TD-9-1) to measure the release of NO. Griess assay is a colorimetric assay, used for detection of NO in the form of nitrite ions (NO2^−). NO released in solution is highly unstable, with a half-life of 1 to 30 s. It gets rapidly oxidized to NO2^− which is detected by the Griess reagent. In this method, NO2^−, first reacts with the sulfanilamide present in the reagent to form a transient diazonium salt. […] Sodium nitrite (NaNO2) was used as a standard for the Griess assay. NaNO2 samples in deionized water were prepared of concentrations within the linear range of the assay (1-100 μM). The samples were incubated for 30 min at 37° C., after which Griess reagent was added and absorbance was measured at 540 nm. The measured absorbances were used to obtain a standard curve (FIG. 3). For the measurement of NO2^− release for all the test compounds (TD-1, TD-7-1, TD-8-1 and TD-9-1), the absorbances were extrapolated from the standard NaNO2 curve.
In this assay, a solution of the test compound (1 mL of a 2 mM solution in 0.1 M phosphate buffer (pH 7.4)) was mixed thoroughly with a freshly prepared solution of L-cysteine (1 mL of a 36 mM solution in 0.1 M phosphate buffer, pH 7.4), and incubated at 37° C., for 1 and 16 h under anaerobic conditions. After exposure to air for 10 min at 25° C., an aliquot of the Griess reagent (1 mL) [freshly prepared by mixing equal volumes of 1.0% sulfanilamide (prepared and stored in aqueous 5% phosphoric acid) and 0.1% N-naphthylethylenediamine dihydrochloride in water] was added to an equal volume (1 mL) of each incubation solution after mixing. After 10 min, absorbance was measured at 540 nm using a Hewlett Packard (Agilent) 8453 UV-visible Spectroscopy. NaNO2 solutions of 1-100 μM concentrations were used to prepare a standard nitrite curve of absorbance […] versus concentration (μM). The NO released (quantitated as NO2^− release in μM) was calculated from the standard nitrite curve by extrapolation of the absorbance. […]

T1 sequence (P69905 2-142 limits assumed): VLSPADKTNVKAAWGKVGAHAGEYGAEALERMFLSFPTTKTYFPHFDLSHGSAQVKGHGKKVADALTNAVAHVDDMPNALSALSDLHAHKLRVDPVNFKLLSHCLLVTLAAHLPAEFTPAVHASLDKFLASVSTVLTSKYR
T1 sequence (P68871 2-147 limits assumed): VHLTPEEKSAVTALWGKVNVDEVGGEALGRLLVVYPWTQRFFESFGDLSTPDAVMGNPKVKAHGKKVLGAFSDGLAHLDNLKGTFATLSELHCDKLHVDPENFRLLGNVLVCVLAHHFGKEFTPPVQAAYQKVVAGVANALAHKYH
T2 sequence (P69905 2-142 limits assumed): as the sequence (P69905 2-142 limits assumed) above
T2 sequence (P68871 2-147 limits assumed): as the sequence (P68871 2-147 limits assumed) above

Row | Compound | N (Hill coefficient) [1] | P50 [1] [mmHg] | ΔP50 [1] [mmHg] | N (Hill coefficient) [2] | P50 [2] | ΔP50 [2] [mmHg] | Anti-sickling effect (in words) ([3]; SS cells, 4% O2, 5 h, concentration not given, in comparison with 5HMF) | NO2− release after 1 hour [4] [µM] | NO release in the form of NO2− (rank among the compounds) [4] | inhibition at 500 µM ([3]; Homo sapiens, 0.5 mM, SS cells, 1 h air then 4% O2, 37° C., 5 h, read-out: Inhibition of sickled cells) [%] | inhibition at 1000 µM ([3]; Homo sapiens, 1.0 mM, SS cells, 1 h air then 4% O2, 37° C., 5 h, read-out: Inhibition of sickled cells) [%] | inhibition at 2000 µM ([3]; Homo sapiens, 2.0 mM, SS cells, 1 h air then 4% O2, 37° C., 5 h, read-out: Inhibition of sickled cells) [%] | Hemolysis of RBC ([3]; at higher drug concentrations) | NO2− release after 16 hours [4] [µM]
1 | O=Cc1ccc(CO[N+](=O)[O-])o1 [TD-1, 5-Nitrooxymethyl furfural] | 2.0 | 8.4 | −4.1 | 1.9 ± 0.1^c† | 27.4 ± 2.3^c† mmHg | −3.9 | only a modest decrease in the anti-sickling effect | 4.02 | least release |  |  |  |  | 
2 | COc1ccc(OCc2cccc(CO[N+](=O)[O-])n2)c(C=O)c1 [TD-7-1, (6-((2-Formyl-4-methoxyphenoxy)methyl)pyridin-2-yl)methyl nitrate] | 2.1 | 7.7 | −3.9 | 1.7 ± 0.1^c† | 23.4 ± 1.6^c† mmHg | −7.9 |  | 7.61 |  | 72 | 100 | 100 | hemolyzed the RBC at higher drug concentrations | 59.25
3 | COc1ccc(C=O)cc1OCc1cccc(CO[N+](=O)[O-])n1 [TD-8-1, (6-((5-Formyl-2-methoxyphenoxy)methyl)pyridin-2-yl)methyl nitrate] |  |  |  | 2.1^d† | 30.8^d† mmHg | −0.5 |  |  | most release |  |  |  |  | 102.54
4 | COc1ccc(C=O)c(OCc2cccc(CO[N+](=O)[O-])n2)c1 [TD-9-1, (6-((2-Formyl-5-methoxyphenoxy)methyl)pyridin-2-yl)methyl nitrate] |  |  |  | 1.9^d† | 28.6^d† mmHg | −2.7 |  |  |  |  |  |  |  | 78.66
